Measurements as given in patent publication US10450549B2, “Aryloxyphenoxypropionate tolerance in turfrgass species and use of AAD1 as a selectable marker” (Dow AgroSciences, LLC, priority 2004, dated 2019).

Key:
Assay type in all cases: in vivo, Arabidopsis thaliana
wt ARBTH = experiment: In vitro plate test of herbicide cross resistance: wild-type Arabidopsis; conditions: 7 days
Procedure, shortened: (§1)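 Surface-sterilised seeds sown in nutrient agar dosed with test compounds from DMSO stocks (final DMSO ≤1% v/v; DMSO-only control), grown 7 days at 25 °C under continuous light (75 μE m^−2 s^−1). Shoot growth reduction scored visually; root length measured (≥5 plants averaged) vs control. I50 calculated for root and shoot.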

PAAD1.315.064 ARBTH = experiment: In vitro plate test of herbicide cross resistance: homozygous T4 AAD1 (v3) Arabidopsis; conditions: for root ratio / shoot ratio: resistant to sensitive biotype, >2 signifies resistance; for PAAD1.315.064 ARBTH root 150 / PAAD1.315.064 T3 ARBTH shoot 150: 7 days
Procedure, shortened: as §1

[1] = test system: AAD1 (v3)-transformed T1 Arabidopsis; experiment: T1 Arabidopsis response to postemergence herbicide (2,4-D, dichlorprop, haloxyfop, fluroxypyr), % visual injury 2 WAT: AAD1 (v3) transformants; conditions: for resistance/tolerance in AAD1 (v3)-transformed T1 Arabidopsis: haloxyfop 400-1,600 g ae/ha, fluroxypyr; for % Injury Ave / individuals with 20-40% injury / individuals with <20% injury / individuals with >40% injury / % Injury Range / % Injury 20-40% / % Injury <20% / % Injury >40%: 2 WAT; for % Injury 20-40% / % Injury <20% / % Injury >40%: number of individuals
Protocol: Freshly harvested T1 seed (transformed with native [AAD1 (v2)] or plant optimized [AAD1 (v3)] gene) was allowed to dry for 7 days at room temperature. T1 seed was sown in 26.5×51-cm germination trays (T.O. Plastics Inc., Clearwater, Minn.), each receiving a 200 mg aliquots of stratified T1 seed (˜10,000 seed) that had previously been suspended in 40 ml of 0.1% agarose solution and stored at 4° C. for 2 days to complete dormancy requirements and ensure synchronous seed germination.
Sunshine Mix LP5 (Sun Gro Horticulture Inc., Bellevue, Wash.) was covered with fine vermiculite and subirrigated with Hoagland's solution until wet, then allowed to gravity drain. Each 40 ml aliquot of stratified seed was sown evenly onto the vermiculite with a pipette and covered with humidity domes (KORD Products, Bramalea, Ontario, Canada) for 4-5 days. Domes were removed 1 day prior to initial transformant selection using glufosinate postemergence spray (selecting for the co-transformed PAT gene).
Five to six days after planting (DAP) and again 10 DAP, T1 plants (cotyledon and 2-4-1f stage, respectively) were sprayed with a 0.2% solution of Liberty herbicide (200 g ai/L glufosinate, Bayer Crop Sciences, Kansas City, Mo.) at a spray volume of 10 ml/tray (703 L/ha) using a DeVilbiss compressed air spray tip to deliver an effective rate of 280 g ai/ha glufosinate per application. Survivors (plants actively growing) were identified 5-7 days after the final spraying and transplanted individually into 3-inch pots prepared with potting media (Metro Mix 360). Transplanted plants were covered with humidity domes for 3-4 days and placed in a 22° C. growth chamber as before. Domes were subsequently removed and plants moved to the greenhouse (22+5° C., 50+30% RH, 14 h light:10 dark, minimum 500 μE/m^2s^1 natural+supplemental light) at least 1 day prior to testing for the ability of AAD1 (v3) (plant optimized gene) or AAD1 (v2) (native microbial gene) to provide phenoxy auxin herbicide resistance.
Random individual T1 plants selected for glufosinate resistance above were confirmed for expression of the PAT protein using a PAT ELISA kit (Part no. 7000045, Strategic Diagnostics, Inc., Newark, Del.) to non-destructively confirm fidelity of selection process (manufacturer's protocol). Plants were then randomly assigned to various rates of phenoxy herbicides (dichlorprop or 2,4-D). […] Elevated rates were applied in subsequent trials (50, 200, 800, or 3200 g ae/ha).
All auxin herbicide applications were made using the DeVilbiss sprayer as described above to apply 703 L/ha spray volume (0.4 ml solution/3-inch pot) or applied by track sprayer in a 187 L/ha spray volume. […] Dichlorprop used was technical grade (Sigma, St. Louis, Mo.) dissolved in DMSO and diluted in water (<1% DMSO final concentration). As herbicide rates increased beyond 800 g ae/ha, the pH of the spray solution became exceedingly acidic, burning the leaves of young, tender Arabidopsis plants and complicating evaluation of the primary effects of the herbicides. It became standard practice to apply these high rates of phenoxy herbicides in 200 mM Tris buffer (pH 9.0) to a final pH of ˜7-8.
Although Arabidopsis, being a dicot, is not an optimal system for testing ACCase-inhibiting AOPP grass herbicides, AAD1 (v3)-transformed T1 plants were subjected to elevated rates (400-1600 g ae/ha) of RS-haloxyfop acid (internally synthesized) that do cause growth abnormalities and death of wildtype Arabidopsis using the DeVilbiss sprayer as described above. Injury ratings were taken 7 and 14 days after treatment. Likewise, T1 individuals were treated with the pyridyloxyacetate auxin herbicide, fluroxypyr.
Table 16. […] Response is presented in terms of % visual injury 2 WAT. […] Since each T1 is an independent transformation event, one can expect significant variation of individual T1 responses within a given rate. An arithmetic mean and standard deviation is presented for each treatment. […]

[2] = Rebuilt AAD1 (v3) gene, 50 g ae/ha
[3] = Rebuilt AAD1 (v3) gene, 200 g ae/ha
[4] = Rebuilt AAD1 (v3) gene, 800 g ae/ha

Nc1c(Cl)c(F)nc(OCC(=O)O)c1Cl [Fluroxypyr]
wt ARBTH root 150 (wt ARBTH): 0.2 ppm
wt ARBTH shoot 150 (wt ARBTH): 2 ppm
root ratio (PAAD1.315.064 ARBTH): 1
shoot ratio (PAAD1.315.064 ARBTH): 0.5
resistance afforded by AAD1 (v3) in plate test (PAAD1.315.064 ARBTH; root and shoot assessment): did not effectively protect
PAAD1.315.064 ARBTH root 150 (PAAD1.315.064 ARBTH): 0.2 ppm
PAAD1.315.064 T3 ARBTH shoot 150 (PAAD1.315.064 ARBTH): 1 ppm
resistance/tolerance in AAD1 (v3)-transformed T1 Arabidopsis [1]: No resistance was observed

O=C(O)COc1ccc(Cl)cc1Cl [2,4-D, 2,4-dichlorophenoxyacetic acid]
wt ARBTH root 150 (wt ARBTH): <0.01 ppm
wt ARBTH shoot 150 (wt ARBTH): 0.2 ppm
PAAD1.315.064 ARBTH root 150 (PAAD1.315.064 ARBTH): 0.04 ppm
PAAD1.315.064 T3 ARBTH shoot 150 (PAAD1.315.064 ARBTH): 10 ppm
injury of some AAD1 (v3) T1 individuals ([1]; 3,200 g ae/ha): little or no injury
T1 plants uninjured ([1]; AAD1 (v3), 200 g ae/ha): > 73%
% Injury Ave [1, 2]: 24.3%
individuals with 20-40% injury [1, 2]: 1
individuals with <20% injury [1, 2]: 10
individuals with >40% injury [1, 2]: 5
% Injury Ave [1, 3]: 14%
individuals with 20-40% injury [1, 3]: 4
individuals with <20% injury [1, 3]: 11
individuals with >40% injury [1, 3]: 1
% Injury Ave [1, 4]: 14.7%
individuals with 20-40% injury [1, 4]: 4
individuals with <20% injury [1, 4]: 11
individuals with >40% injury [1, 4]: 1

CC(Oc1ccc(Cl)cc1Cl)C(=O)O (racemic) [(R,S)-dichlorprop, 2,4-dichlorophenoxypropionic acid]
wt ARBTH root 150 (wt ARBTH): 0.01 ppm
wt ARBTH shoot 150 (wt ARBTH): 2 ppm
root ratio (PAAD1.315.064 ARBTH): 150
shoot ratio (PAAD1.315.064 ARBTH): 2.5
PAAD1.315.064 ARBTH root 150 (PAAD1.315.064 ARBTH): 1.5 ppm
PAAD1.315.064 T3 ARBTH shoot 150 (PAAD1.315.064 ARBTH): 5 ppm
% Injury Ave ([1]; AAD1 v3, 12.5 g ae/ha): 5.0%
% Injury Range ([1]; AAD1 v3, 12.5 g ae/ha): 0-20%
individuals with 20-40% injury ([1]; AAD1 v3, 12.5 g ae/ha): 1
individuals with <20% injury ([1]; AAD1 v3, 12.5 g ae/ha): 7
individuals with >40% injury ([1]; AAD1 v3, 12.5 g ae/ha): 0
% Injury Ave ([1]; AAD1 v3, 50 g ae/ha): 3.1%
% Injury Range ([1]; AAD1 v3, 50 g ae/ha): 0-25%
individuals with 20-40% injury ([1]; AAD1 v3, 50 g ae/ha): 1
individuals with <20% injury ([1]; AAD1 v3, 50 g ae/ha): 7
individuals with >40% injury ([1]; AAD1 v3, 50 g ae/ha): 0
% Injury Ave ([1]; AAD1 v3, 200 g ae/ha): 40.0%
% Injury Range ([1]; AAD1 v3, 200 g ae/ha): 0-100%
individuals with 20-40% injury ([1]; AAD1 v3, 200 g ae/ha): 1
individuals with <20% injury ([1]; AAD1 v3, 200 g ae/ha): 4
individuals with >40% injury ([1]; AAD1 v3, 200 g ae/ha): 3
% Injury Ave ([1]; AAD1 v3, 800 g ae/ha): 51.9%
% Injury Range ([1]; AAD1 v3, 800 g ae/ha): 20-100%
individuals with 20-40% injury ([1]; AAD1 v3, 800 g ae/ha): 5
individuals with <20% injury ([1]; AAD1 v3, 800 g ae/ha): 0
individuals with >40% injury ([1]; AAD1 v3, 800 g ae/ha): 3

CC(Oc1ccc(Oc2ncc(C(F)(F)F)cc2Cl)cc1)C(=O)O (stereo not drawn) [haloxyfop]
% Injury Ave ([1]; 100 g ae/ha, AAD1 v3): 0.0%
% Injury Range ([1]; 100 g ae/ha, AAD1 v3): 0%
% Injury Ave ([1]; 200 g ae/ha, AAD1 v3): 0.0%
% Injury Range ([1]; 200 g ae/ha, AAD1 v3): 0%
% Injury Ave ([1]; 400 g ae/ha, AAD1 v3): 6.3%
% Injury Range ([1]; 400 g ae/ha, AAD1 v3): 0-20%
% Injury Ave ([1]; 800 g ae/ha, AAD1 v3): 46.3%
% Injury Range ([1]; 800 g ae/ha, AAD1 v3): 0-85%
% Injury Ave ([1]; 1600 g ae/ha, AAD1 v3): 65.0%
% Injury Range ([1]; 1600 g ae/ha, AAD1 v3): 0-100%
resistance/tolerance in AAD1 (v3)-transformed T1 Arabidopsis [1]: increased tolerance
% Injury 20-40% ([1]; 100 g ae/ha, AAD1 v3): 0
% Injury <20% ([1]; 100 g ae/ha, AAD1 v3): 4
% Injury >40% ([1]; 100 g ae/ha, AAD1 v3): 0
% Injury 20-40% ([1]; 200 g ae/ha, AAD1 v3): 0
% Injury <20% ([1]; 200 g ae/ha, AAD1 v3): 4
% Injury >40% ([1]; 200 g ae/ha, AAD1 v3): 0
% Injury 20-40% ([1]; 400 g ae/ha, AAD1 v3): 1
% Injury <20% ([1]; 400 g ae/ha, AAD1 v3): 3
% Injury >40% ([1]; 400 g ae/ha, AAD1 v3): 0
% Injury 20-40% ([1]; 800 g ae/ha, AAD1 v3): 1
% Injury <20% ([1]; 800 g ae/ha, AAD1 v3): 1
% Injury >40% ([1]; 800 g ae/ha, AAD1 v3): 2
% Injury 20-40% ([1]; 1600 g ae/ha, AAD1 v3): 0
% Injury <20% ([1]; 1600 g ae/ha, AAD1 v3): 1
% Injury >40% ([1]; 1600 g ae/ha, AAD1 v3): 3
